# Measurements: patent US20170248586A1, “Marker For Depression, Assay Method, Method For Determining Depression, Screening Method For Antidepressants, And Kit” (MEIJO UNIVERSITY, priority 2013, published 2017)
# Tests used:
# [1] = test system: MAGE-D1 gene-deficient mice; test: Forced swim test, evaluation of depression-like behavior in model mice; format: in vivo, mouse; settings: for average value of immobility time: immobility measured for 10 minutes, 0 mg/kg group 425 seconds; for depression-like behavior in model mice: FIG. 1A desipramine, FIG. 1B atomoxetine; for increase in immobility time of model mice in the forced swim test (result in words): desipramine 10 mg/kg or atomoxetine 3 mg/kg i.p., FIGS. 1A and 1B
# Text: A targeting vector (Stratagene: pBlueScript) for homologous recombination between a MAGE-D1 gene (Gene bank: NM_019791.2) exon and a drug (G418)-resistant gene (GenBank: U00004.1) was electroporated into embryo stem (ES) cells derived from 129Svj mice (supplied from National Center for Geriatrics and Gerontology), and drug-resistant colonies were selected. A homologous recombinant was identified from the selected drug-resistant colonies by Southern blotting. The identified target homologous recombinant ES cell clone was injected into C57BL/6J mouse blastocyst-stage embryos to generate chimeric mice. The chimeric mice were mated with wild-type C57BL/6J mice to generate F1 heterozygous MAGE-D1 gene-deficient mice. The heterozygous MAGE-D1 gene-deficient mice were mated with wild-type C57BL/6J mice up to the F10 generation. The mice having a 99.9% C57BL/6J genetic background were used (When mating with a C57BL/6J mouse is performed once, about half of the genes of a newborn mouse are derived from the C57BL/6J mouse used for mating. That is, it is considered that when mating with a C57BL/6J mouse is performed n times, about [1−(½)^n+1]×100% of genes are derived from the C57BL/6J mouse.) The mice having such a genetic background were defined as MAGE-D1 gene-deficient mice (hereinafter, also referred to as model mice) and used in the following tests.
# (§1) Experimental Equipment and Procedure: A water bath (diameter 15 cm×height 20 cm) filled with water (water temperature: about 22° C., depth: 13 cm) was used as experimental equipment. A wild-type C57BL/6J mouse as a control or a model mouse was placed in the water bath, and just after that, immobility time was measured by Scanet MV-10 AQ (Brain Science Idea, Osaka, Japan) every 1 minute for 10 minutes.
# (§2) Thirty minutes before the test, 10 mg/kg of desipramine (Sigma, St. Louis, Mo.) or 3 mg/kg of atomoxetine (LKT Laboratories, Inc, MN) dissolved in normal saline was intraperitoneally administered. As a control, the solvent was intraperitoneally administered.
# (§3) In Examples, MAGE-D1 gene-deficient mice were used as animal models. The forced swim test was used for evaluating depression-like behavior. In the forced swim test, a mouse is placed in a narrow cylinder filled with water so as to recognize the impossibility of escape therefrom, and the time that the mouse floats on water without moving is evaluated as decreased motivation. […] Each administration test was performed in triplicate, and therefore graphs in FIGS. 1A and 1B show average values.
# [2] = test system: wild-type C57BL/6J mouse; test: Forced swim test in control mice; format: in vivo; settings: immobility measured for 10 minutes, 0 mg/kg group 203 seconds
# Procedure: as §1, §2, §3
# [3] = 3 mg/kg intraperitoneally 30 min before test
# [4] = 10 mg/kg intraperitoneally 30 min before test
Structure (SMILES),"average value of immobility time [1, 3] [s]",depression-like behavior in model mice [1],increase in immobility time of model mice in the forced swim test (result in words) [1],"average value of immobility time [2, 3] [s]","average value of immobility time [1, 4] [s]","average value of immobility time [2, 4] [s]"
CNCC[C@@H](Oc1ccccc1C)c1ccccc1 [atomoxetine],283,relieved,significantly reduced,205,–,–
CNCCCN1c2ccccc2CCc2ccccc21 [desipramine],–,relieved,significantly reduced,–,334,215
